Experimental data published in patent publication US20130267594A1, “PROLYL HYDROXYLASE INHIBITORS AS RADIATION MITIGATORS AND RADIATION PROTECTORS” (priority 2010, published 2013).

Legend:
[1] = system: CHD4; assay type: cell-based
[2] = system: Suv39h1; assay type: cell-based
[3] = system: MTA3; assay type: cell-based
[4] = system: Hif1α; assay type: cell-based, mouse
[5] = system: MTA3; assay type: cell-based; remark: listed apart in the source
[6] = system: CHD4; assay type: cell-based; remark: listed apart in the source
[7] = system: Hif1α; assay type: cell-based

With [Cl-].[Cl-].[Co+2] [CoCl2] the CHD4 protein levels [1] was “increased”, the “expression of the Suv39h1 methyltransferase” value [2] was “to a lesser extent, CoCl2, increased expression of the Suv39h1 methyltransferase” and the MTA3 protein levels [3] was “increased”. The “ability to increase Hif1α levels in SuvDKO MEFs” value [4] was “not altered”, the “MTA3 mRNA levels” value [5] was “increased” and the “CHD4 mRNA levels” value [6] was “increased”. For the same compound, the Hif1α protein levels [7] was “increased”, the “accumulation of Hif1α” value [7] was “significant accumulation of Hif1α” and the “accumulation of Hif1α protein in combination with IR, versus agent alone” value [7] was “much larger accumulation of Hif1α protein”.
